Measurements as given in US20230183292A1, “IMMUNOMODULATORS” (priority 2020, published 2023).
Starred links: 1 amine or outer side, 2 acyl side, 3 side chain; linkers in the order of their positions; H or OH if unused. Positions of bridges follow the written chain, without caps; N, C: chain ends. Non-standard residues stand in square brackets, D forms with d. Residues, ends and D or L forms follow the SMILES beside them. *: point of attachment. X25 = C[C@H](CCC(=O)O)[C@H]1CC[C@H]2[C@@H]3C(=O)C[C@@H]4CC(NC[C@H](N[*:1])C(=O)[*:2])CC[C@]4(C)[C@H]3CC[C@]12C; Cholyl = C[C@H](CCC(=O)*)[C@H]1CC[C@H]2[C@@H]3[C@H](O)C[C@@H]4C[C@H](O)CC[C@]4(C)[C@H]3C[C@H](O)[C@]12C; X33 = C[C@H](CCC(=O)*)[C@H]1CC[C@H]2[C@@H]3C(=O)C[C@@H]4C[C@H](O)CC[C@]4(C)[C@H]3CC[C@]12C; X18 = CCN(CC)CCCNC(=O)Cn1cc(C[C@H](N[*:1])C(=O)[*:2])c2ccccc21; Trp(1-CH2COOH) = N[C@@H](Cc1cn(CC(=O)O)c2ccccc12)C(=O)O; X28 = O=C(C[C@@H](Cc1ccc(O)cc1)C(=O)[*:1])C[*:2]; Hyp = O=C(O)[C@@H]1C[C@@H](O)CN1; NMeNle = CCCC[C@H](NC)C(=O)O; NMeA = CN[C@@H](C)C(=O)O; Dab = NCC[C@H](N)C(=O)O; Dap = NC[C@H](N)C(=O)O

Biological target: T1, PD-1/PD-L1 (Homo sapiens, UniProt Q9NZQ7)
T1 construct: TVMV protease site (C); made in house; host or cells: HEK293T cells
Assay: PD-1/PD-L1 Homogenous Time-Resolved Fluorescence (HTRF) binding assay
Conditions: PD-L1-His 10 nM, PD-1-Ig 20 nM; read-out: HTRF IC50
Method in brief: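 Inhibitors pre-incubated 15 min with PD-L1-His (10 nM final) in dPBS, 0.1% BSA, 0.05% Tween-20, then 15 min with PD-1-Ig (20 nM final). Eu-cryptate anti-Ig (1 nM) and APC anti-His (20 nM) added, 30 min equilibration; HTRF 665/620 nm ratio. Human ECD proteins from HEK293T.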

T1 sequence (Q9NZQ7 18-239): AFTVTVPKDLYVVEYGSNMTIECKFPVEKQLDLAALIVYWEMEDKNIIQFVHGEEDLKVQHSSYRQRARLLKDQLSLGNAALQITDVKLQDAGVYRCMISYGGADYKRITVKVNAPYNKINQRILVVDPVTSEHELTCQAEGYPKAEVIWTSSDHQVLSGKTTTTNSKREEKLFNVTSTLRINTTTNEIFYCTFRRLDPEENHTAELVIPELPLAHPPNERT

| Structure (SMILES) | IC50 [nM] |
| --- | --- |
| CCCC[C@H]1C(=O)N(C)[C@@H](CCCC)C(=O)N[C@@H](CC(C)C)C(=O)N[C@H](C(=O)NCC(N)=O)CSCC(=O)N[C@@H](Cc2ccc(O)cc2)C(=O)N(C)[C@@H](C)C(=O)N[C@@H](CC(N)=O)C(=O)N2CCC[C@H]2C(=O)N[C@@H](CNC(=O)CC[C@@H](C)[C@H]2CC[C@H]3[C@@H]4[C@H](O)C[C@@H]5C[C@H](O)CC[C@]5(C)[C@H]4C[C@H](O)[C@]23C)C(=O)N[C@@H](CC(C)C)C(=O)N2C[C@H](O)C[C@H]2C(=O)N[C@@H](Cc2c[nH]c3ccccc23)C(=O)N[C@@H](CCNC(=O)CC[C@@H](C)[C@H]2CC[C@H]3[C@@H]4[C@H](O)C[C@@H]5C[C@H](O)CC[C@]5(C)[C@H]4C[C@H](O)[C@]23C)C(=O)N[C@@H](Cc2cn(CC(=O)NCCCN(CC)CC)c3ccccc23)C(=O)N1C [Example 2008] ({CH2CO}-Y[NMeA]NP[Dap](Cholyl)L[Hyp]W[Dab](Cholyl)[X18][NMeNle][NMeNle]LCG-NH2; thioether N-14) | 95 |
| CCCC[C@H]1C(=O)N(C)[C@@H](CCCC)C(=O)N[C@@H](CC(C)C)C(=O)N[C@H](C(=O)NCC(N)=O)CSCC(=O)N[C@@H](Cc2ccc(O)cc2)C(=O)N(C)[C@@H](C)C(=O)N[C@@H](CC(N)=O)C(=O)N2CCC[C@H]2CN[C@@H](CNC(=O)CC[C@@H](C)[C@H]2CC[C@H]3[C@@H]4[C@H](O)C[C@@H]5C[C@H](O)CC[C@]5(C)[C@H]4C[C@H](O)[C@]23C)C(=O)N[C@@H](CC(C)C)C(=O)N2C[C@H](O)C[C@H]2C(=O)N[C@@H](Cc2c[nH]c3ccccc23)C(=O)N[C@@H](CCNC(=O)CC[C@@H](C)[C@H]2CC[C@H]3[C@@H]4[C@H](O)C[C@@H]5C[C@H](O)CC[C@]5(C)[C@H]4C[C@H](O)[C@]23C)C(=O)N[C@@H](Cc2cn(CC(=O)NC3CC3)c3ccccc23)C(=O)N1C [Example 2009] | 2900 |
| CCCC[C@H]1C(=O)N(C)[C@@H](CCCC)C(=O)N[C@@H](CC(C)C)C(=O)N[C@H](C(=O)NCC(N)=O)CSCC(=O)N[C@@H](Cc2ccc(O)cc2)C(=O)N(C)[C@@H](C)C(=O)N[C@@H](CC(N)=O)C(=O)N2CCC[C@H]2CN[C@@H](CNC(=O)CC[C@@H](C)[C@H]2CC[C@H]3[C@@H]4[C@H](O)C[C@@H]5C[C@H](O)CC[C@]5(C)[C@H]4C[C@H](O)[C@]23C)C(=O)N[C@@H](CC(C)C)C(=O)N2C[C@H](O)C[C@H]2C(=O)N[C@@H](Cc2c[nH]c3ccccc23)C(=O)N[C@@H](CCNC(=O)CC[C@@H](C)[C@H]2CC[C@H]3[C@@H]4[C@H](O)C[C@@H]5C[C@H](O)CC[C@]5(C)[C@H]4C[C@H](O)[C@]23C)C(=O)N[C@@H](Cc2cn(CC(=O)OCCO)c3ccccc23)C(=O)N1C [Example 2005] | 210 |
| CCCC[C@H]1C(=O)N(C)[C@@H](CCCC)C(=O)N[C@@H](CC(C)C)C(=O)N[C@H](C(=O)NCC(N)=O)CSCC(=O)C[C@@H](Cc2ccc(O)cc2)C(=O)N(C)[C@@H](C)C(=O)N[C@@H](CC(N)=O)C(=O)N2CCC[C@H]2C(=O)N[C@@H](CNC2CC[C@@]3(C)[C@H](CC(=O)[C@@H]4[C@@H]3CC[C@]3(C)[C@@H]([C@H](C)CCC(=O)O)CC[C@@H]43)C2)C(=O)N[C@@H](CC(C)C)C(=O)N2C[C@H](O)C[C@H]2C(=O)N[C@@H](Cc2c[nH]c3ccccc23)C(=O)N[C@@H](CCN)C(=O)N[C@@H](Cc2cn(CC(=O)O)c3ccccc23)C(=O)N1C (some centres unmarked) [Example 3004] ([NMeA]NP[X25]L[Hyp]W[Dab][Trp(1-CH2COOH)][NMeNle][NMeNle]LCG-NH2; linker N-13 via X28) | 41 |
| CCCC[C@H]1C(=O)N(C)[C@@H](CCCC)C(=O)N[C@@H](CC(C)C)C(=O)N[C@H](C(=O)NCC(N)=O)CSCC(=O)N[C@@H](Cc2ccc(O)cc2)C(=O)N(C)[C@@H](C)C(=O)N[C@@H](CC(N)=O)C(=O)N2CCC[C@H]2C(=O)N[C@@H](CNC(=O)CC[C@@H](C)[C@H]2CC[C@H]3[C@@H]4C(=O)C[C@@H]5C[C@H](O)CC[C@]5(C)[C@H]4CC[C@]23C)C(=O)N[C@@H](CC(C)C)C(=O)N2C[C@H](O)C[C@H]2C(=O)N[C@@H](Cc2c[nH]c3ccccc23)C(=O)N[C@@H](CCNC(=O)CC[C@@H](C)[C@H]2CC[C@H]3[C@@H]4C(=O)C[C@@H]5C[C@H](O)CC[C@]5(C)[C@H]4CC[C@]23C)C(=O)N[C@@H](Cc2cn(CC(=O)O)c3ccccc23)C(=O)N1C [Example 1016] ({CH2CO}-Y[NMeA]NP[Dap](X33)L[Hyp]W[Dab](X33)[Trp(1-CH2COOH)][NMeNle][NMeNle]LCG-NH2; thioether N-14) | 12 |
